# Measured values reported in patent publication EP2077851B1, “A PHARMACEUTICAL COMPOSITION COMPRISING CORDYCEPIN FOR THE TREATMENT AND PREVENTION OF OBESITY” (priority 2006, dated 2008).
# Like-named read-outs stand apart in the source and are kept apart here.
# How the values were obtained:
# [1] = cited from earlier work
# 3T3-L1 cells [2] = test: Differentiation of 3T3-L1 fibroblast cells into adipocytes (oil red O staining); format: cell-based
# Experimental: Fibroblast cells (3T3-L1 cells) were cultured in 10 cm-culture dishes containing animal cell culture media (refer to Table 2, below) at 37°C in a 5% CO2 incubator, with the media replaced with fresh media every two or three days.
# 3T3-L1 cell line was purchased from the American Type Culture Collection (ATCC CL-173). The cells were grown and differentiated according to the protocol of Frost and Lane (Frost and Lane, 1985): 3T3-L1 preadipocytes were cultured in 100 mm plates containing a submerged medium for proliferation (DMEM supplemented with 10% BCS, 100 U/ml penicillin, and 100 µg/ml streptomycin) in an atmosphere of 5% CO2 at 37°C. When the cell become confluent, the cells were harvested, splitted in a 6-well plate to a cell number of 4.0×10^5 cells/ml and subsequently cultured until reaching confluence again. Two days after confluence, the cells were stimulated to differentiate into adipocytes by incubating for 2 days in the medium for stimulating differentiation (MSD, DMEM containing 1 µM DEX, 0.5 mM IBMX, and 10 µg/ml insulin), and maintained in the differentiated state in the medium for differentiation (MFD containing 10% BCS and 5 µg/ml insulin) for 7 days. MSD was freshly replaced every 48 hours and the comparison of the each medium composition used in this example was shown in Table 2.
# Cordycepin was dissolved in the appropriate warm medium and added at the final concentration of 4, 16, and 32 µM.
# Cells obtained in Example 1-1 were washed twice with PBS (pH 7.4), fixed with 10% formalin in PBS for 1 hour at room temperature and washed three times with distilled water. The cells were stained with filtered 0.5% oil red O for 10 min, and washed again with distilled water three times. The pictures of the stained cells were taken using an Olympus (CKX-41, Tokyo, Japan) microscope. The density of stained oil red O was measured using a spectrometer (DU-70, Beckman, Fullerton, CA) at 518 nm after the dye was extracted with propanol. […]
# 3T3-L1 cells [3] = test: Triacylglycerol synthesis in 3T3-L1 cells (intracellular triacylglycerol per unit weight of protein); format: cell-based
# Experimental: A measurement was made to find the effect of cordycepin on the synthesis of triacylglycerol (TAG). First, the cells in each group were detached using a Tris-EDTA buffer and disrupted with an ultrasonicator. A calibration curve for a standard solution was made according to the protocol of a BCA protein assay kit. The cell lysates were diluted in the kit reagent and warmed at 37°C for 30 min. Then, within 10 min, the solutions were measured for absorbance at 562 nm to quantify protein. Separately, according to the protocol of a BCS triacylglycerol kit, the cell lysates were diluted in the kit reagent and warmed at 37°C for 10 min. Then, within 60 min, the absorbance of the solutions was measured at 550 nm against a reagent blank. The amount of intracellular triacylglycerol per unit weight of protein (µg/mg) was calculated according to a calculation formula.
# For the preliminary investigation of the mode of action of cordycepin on differentiation and TAG synthesis, adenosine, one of several cordycepin homologues, was added to the submerged medium for differentiation at the time of initiating differentiation at the same molar concentration as cordycepin (32 µM).
# C/EBPα = test: Western blot analysis of protein expression in 3T3-L1 cells; format: cell-based; conditions: FIG. 8
# Experimental: (§1) Western blot analysis was performed in order to examine the effect of cordycepin on the expression of C/EBPα, PPARγ, and anti-leptin, the essential factors involved in adipogenesis and lipogenesis.
# (§2) 3T3-L1 cells cultured in 6-well dishes were rinsed three times with ice-cold PBS, scraped into 0.5 ml of PBS, and centrifuged at 14,000 rpm for 1 min. Cell pellets were resuspended in 0.2 ml ice-cold RIPA buffer (50 mM Tris-HCl, pH 7.4, 150 mM NaCl, 1 mM EDTA, 1% NP 40, 0.25 % deoxycholate) and protease inhibitors (Complete Mini Protease Inhibitor Tablets, Roche, Indianapolis, IN). Suspensions were sheared through a 20-gauge needle, incubated on ice for 30 min and centrifuged at 14,000 rpm at 4°C for 20 min. Supernatants were collected and the protein concentration was determined using a BCA assay kit. Cell lysates were mixed with an equal volume of Laemmli SDS loading buffer (Bio-Rad Laboratories, Hercules, CA), equal amounts of lysate protein ([…]) were loaded onto SDS-PAGE, and electrophoresis was carried out before the protein was transferred to a nitrocellulose membrane (Bio-Rad Laboratories, Hercules, CA). The membranes were blocked for 1 h in PBS containing 0.05% Tween-20 (USB corp., Cleveland, USA) and 5% nonfat dry milk. The membranes were incubated with antibodies against C/EBPα, PPARγ (Santa Cruz, CA) and anti-leptin (Sigma) for 1 hour, followed by three 10 min washes in PBS/Tween-20. The blots were subsequently treated with appropriate secondary antibodies conjugated to horseradish peroxidase for 1 hour at room temperature, and washed with PBS-T three times for 10 min. To visualize reaction complexes, an enhanced chemiluminescence system (ECL, Amersham International plc, Little Chalfont Buckinghamshire, England) was used, and reaction complexes were exposed to X-ray film.
# PPARγ = test: as above; format: cell-based; conditions: FIG. 8
# Experimental: as §1, §2
# anti-leptin = test: as above; format: cell-based; conditions: 32 µM, differentiated 3T3-L1 cells, FIG. 8
# Experimental: as §1, §2
# [4] = anti-obesity drugs, background knowledge
# [5] = adenosine 32 µM, differentiated 3T3-L1 cells
molecule,measurement,setting,value
NC1=NCC(c2ccccc2)O1 (centres unmarked) [Aminorex],Side effect,[1]; [4],Pulmonary hypertension caused
CC(N)Cc1ccccc1 (centres unmarked) [Amphetamine],Side effect,[1]; in vivo,Addictive
CCNC(C)Cc1cccc(C(F)(F)F)c1 (centres unmarked) [Fenfluramine],Valvular dysfunction caused in persons administered in combination with other therapy,"[1]; share of persons, sale prohibited in 1997","Valvular dysfunction caused in 35% of persons administered in combination with other therapy, sale prohibited in 1997."
CCCCCCCCCCC[C@@H](C[C@@H]1OC(=O)[C@H]1CCCCCC)OC(=O)[C@H](CC(C)C)NC=O [Orlistat],Side effect,[1]; [4],"Diarrhea, fatty stool, fecal incontinence."
CC(C)CC(N(C)C)C1(c2ccc(Cl)cc2)CCC1 (centres unmarked) [Sibutramine],Side effect,[1]; [4],"Blood pressure increase, insomnia, xerostomia and vertigo. Prohibited to the patients with cardiovascular disease."
Nc1ncnc2c1ncn2[C@@H]1O[C@H](CO)[C@@H](O)[C@H]1O [adenosine],inhibitory effect of cordycepin on differentiation of 3T3-L1 cells,"3T3-L1 cells [2]; adenosine 32 µM added together with cordycepin 32 µM at initiation of differentiation, FIG. 6",suppressed
same,inhibitory effect of cordycepin on TAG synthesis of 3T3-L1 cells,"3T3-L1 cells [3]; adenosine 32 µM added together with cordycepin 32 µM at initiation of differentiation, FIG. 7",suppressed
same,C/EBPα level,C/EBPα; [5],inhibited
same,expression levels of PPARγ,PPARγ; [5],no significant effect
same,expression levels of anti-leptin,anti-leptin,no significant effect
"Nc1ncnc2c1ncn2[C@@H]1O[C@H](CO)C[C@H]1O [cordycepin, 3'-deoxyadenosine]",differentiation of 3T3-L1 cells into adipose cells,"3T3-L1 cells [2]; cordycepin 4, 16 and 32 µM, oil red O, 518 nm, FIG. 4",inhibits the differentiation of 3T3-L1 cells into adipose cells in a dose-dependent manner
same,differentiation of 3T3-L1 cells into adipocytes,"3T3-L1 cells [2]; in the presence of 32 µM of cordycepin, FIG. 4",almost completely suppressed
same,synthesis of triacylglycerol in 3T3-L1 cells,"3T3-L1 cells [3]; cordycepin 4, 16 and 32 µM, FIG. 5",inhibits the synthesis of triacylglycerol in 3T3-L1 cells in a dose-dependent manner
same,expression levels of C/EBPα,"C/EBPα; 32 µM, 3T3-L1 cells",inhibited
same,expression levels of PPARγ,"PPARγ; 32 µM, 3T3-L1 cells",inhibited
same,expression levels of anti-leptin,anti-leptin,inhibited
Thyroid hormone,Side effect,[1]; [4],Hyperthyroidism caused
